Measured values: paper PMC9516332 (Frontiers in Oncology, 2022)
Like-named read-outs stand apart in the source and are kept apart here.

What was measured:
Test in all cases: Kinase panel profiling at 1 µmol/L (MSA or IMAP), percentage inhibition
Assay type in all cases: biochemical
[1] = target: panel of 255 wild-type kinases (Homo sapiens, UniProt P29317); conditions: read-out: %-inhibition at 1 µmol/L, EPHA2
[2] = target: T1, panel of 255 wild-type kinases (Homo sapiens, UniProt P54762); conditions: read-out: %-inhibition at 1 µmol/L, EPHB1
T1 sequence (P54762 18-984): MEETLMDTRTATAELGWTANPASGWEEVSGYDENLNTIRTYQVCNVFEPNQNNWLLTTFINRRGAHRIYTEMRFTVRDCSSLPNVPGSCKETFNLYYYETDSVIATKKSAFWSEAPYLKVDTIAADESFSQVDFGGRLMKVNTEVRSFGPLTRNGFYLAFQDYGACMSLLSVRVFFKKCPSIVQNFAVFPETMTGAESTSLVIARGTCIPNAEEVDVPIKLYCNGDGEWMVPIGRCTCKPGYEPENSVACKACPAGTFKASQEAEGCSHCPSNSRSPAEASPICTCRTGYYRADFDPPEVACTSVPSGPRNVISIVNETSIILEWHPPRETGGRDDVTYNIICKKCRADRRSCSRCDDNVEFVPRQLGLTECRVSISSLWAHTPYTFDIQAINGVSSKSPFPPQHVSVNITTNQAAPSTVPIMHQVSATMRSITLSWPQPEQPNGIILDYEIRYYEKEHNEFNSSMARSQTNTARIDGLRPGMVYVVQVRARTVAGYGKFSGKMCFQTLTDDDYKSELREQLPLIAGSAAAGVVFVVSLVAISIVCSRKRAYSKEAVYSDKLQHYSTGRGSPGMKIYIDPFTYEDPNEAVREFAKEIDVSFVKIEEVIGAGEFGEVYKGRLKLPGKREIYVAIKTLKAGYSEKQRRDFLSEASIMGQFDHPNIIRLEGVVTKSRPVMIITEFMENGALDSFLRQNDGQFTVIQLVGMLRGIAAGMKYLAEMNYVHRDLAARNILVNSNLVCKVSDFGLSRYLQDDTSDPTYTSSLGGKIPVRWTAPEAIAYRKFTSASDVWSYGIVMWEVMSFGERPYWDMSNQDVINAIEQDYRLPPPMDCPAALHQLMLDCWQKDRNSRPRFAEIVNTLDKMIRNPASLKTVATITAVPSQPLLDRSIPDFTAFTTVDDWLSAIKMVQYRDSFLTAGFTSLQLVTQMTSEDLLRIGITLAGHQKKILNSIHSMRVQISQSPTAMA

[3] = target: T2, panel of 255 wild-type kinases (Homo sapiens, UniProt P42680); conditions: read-out: %-inhibition at 1 µmol/L, TEC
T2 sequence (P42680 1-631): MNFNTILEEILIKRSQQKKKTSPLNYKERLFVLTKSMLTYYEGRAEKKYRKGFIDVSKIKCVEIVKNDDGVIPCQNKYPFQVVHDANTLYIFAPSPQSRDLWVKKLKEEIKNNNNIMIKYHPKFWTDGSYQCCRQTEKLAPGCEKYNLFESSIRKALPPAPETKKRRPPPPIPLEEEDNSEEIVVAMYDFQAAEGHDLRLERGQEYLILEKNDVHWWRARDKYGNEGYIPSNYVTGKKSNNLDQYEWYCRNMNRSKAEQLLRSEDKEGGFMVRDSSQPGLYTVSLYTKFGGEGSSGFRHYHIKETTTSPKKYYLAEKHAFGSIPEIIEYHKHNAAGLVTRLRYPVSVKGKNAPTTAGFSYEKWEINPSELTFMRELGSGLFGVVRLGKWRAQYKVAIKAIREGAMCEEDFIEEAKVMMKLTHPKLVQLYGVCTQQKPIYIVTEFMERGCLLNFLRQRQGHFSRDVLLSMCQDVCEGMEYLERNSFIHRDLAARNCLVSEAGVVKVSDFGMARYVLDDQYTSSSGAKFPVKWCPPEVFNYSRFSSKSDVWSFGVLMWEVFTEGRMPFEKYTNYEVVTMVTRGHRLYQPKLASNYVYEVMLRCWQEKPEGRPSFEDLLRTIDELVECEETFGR

[4] = target: panel of 255 wild-type kinases (Homo sapiens, UniProt Q9HBH9); conditions: read-out: %-inhibition, MNK2
[5] = target: T3, panel of 255 wild-type kinases (Homo sapiens, UniProt O00141); conditions: read-out: %-inhibition at 1 µmol/L, SGK
T3 sequence (O00141 1-431): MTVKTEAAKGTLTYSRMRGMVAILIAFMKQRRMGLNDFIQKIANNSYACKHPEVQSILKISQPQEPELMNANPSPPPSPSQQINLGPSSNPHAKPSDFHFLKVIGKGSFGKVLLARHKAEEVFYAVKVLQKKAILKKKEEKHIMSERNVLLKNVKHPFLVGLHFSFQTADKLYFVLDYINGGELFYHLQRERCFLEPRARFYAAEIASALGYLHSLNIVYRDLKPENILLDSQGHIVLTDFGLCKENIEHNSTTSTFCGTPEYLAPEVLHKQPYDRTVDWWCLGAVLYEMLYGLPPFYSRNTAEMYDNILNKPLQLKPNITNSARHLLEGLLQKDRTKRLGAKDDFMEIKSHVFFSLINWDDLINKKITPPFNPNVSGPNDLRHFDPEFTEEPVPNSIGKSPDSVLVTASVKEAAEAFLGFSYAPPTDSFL

[6] = target: panel of 255 wild-type kinases (Homo sapiens, UniProt Q00535); conditions: read-out: %-inhibition CDK5/p25
[7] = kinase EPHA2, 1 µmol/L single concentration
[8] = kinase EPHB1, 1 µmol/L single concentration
[9] = kinase TEC, 1 µmol/L single concentration
[10] = MNK2, 1 µmol/L single concentration
[11] = kinase SGK, 1 µmol/L single concentration
[12] = CDK5/p25 kinase assay, 1 µmol/L single concentration

| Compound | inhibition at 1 µM [1, 7] [%] | inhibition at 1 µM [2, 8] [%] | inhibition at 1 µM [3, 9] [%] | inhibition at 1 µM [4, 10] [%] | inhibition at 1 µM [5, 11] [%] | inhibition at 1 µM [6, 12] [%] | inhibition at 1 µM [1] [%] | inhibition at 1 µM [2] [%] | inhibition at 1 µM [3] [%] | inhibition at 1 µM [4] [%] | inhibition at 1 µM [5] [%] | inhibition at 1 µM [6] [%] |
| --- | --- | --- | --- | --- | --- | --- | --- | --- | --- | --- | --- | --- |
| Cn1cnc2c(F)c(Nc3ccc(Br)cc3Cl)c(C(=O)NOCCO)cc21 [selumetinib] | -1.4 | -0.927 | 16 | -0.47 | 1.83 | -11 |  |  |  |  |  |  |
| COc1ccc(CN2C3CC2CN(c2ccc(-c4cc(OCC(C)(C)O)cn5ncc(C#N)c45)cn2)C3)cn1 [selpercatinib] | 49 | 98 | 37 | 37 | 11 | -8.52 |  |  |  |  |  |  |
| O=C(Nc1cnn2ccc(N3CCC[C@@H]3c3cc(F)ccc3F)nc12)N1CC[C@H](O)C1 [larotrectinib] | 0 | -0.531 | 1.59 | -8.51 | -1.16 | -22 |  |  |  |  |  |  |
| CCN1C(=O)N(c2c(F)c(OC)cc(OC)c2F)Cc2cnc3[nH]c(CN4CCOCC4)cc3c21 [pemigatinib] | -3.69 | -3 | -1.55 | -7.4 | 5 | -12 |  |  |  |  |  |  |
| CNC(=O)c1ccc(-c2cnc3ncc(Cc4ccc5ncccc5c4)n3n2)cc1F [capmatinib] |  |  |  |  |  |  | -1 | -1.63 | 4 | -4 | -0.731 | -20 |
| FC(F)(F)c1ccc(CNc2ccc(Cc3c[nH]c4ncc(Cl)cc34)cn2)cn1 [pexidartinib] | 7.59 | 11 | -0.0585 | 48 | 11 | -21 |  |  |  |  |  |  |
| C[C@H](Nc1ncnc2nc[nH]c12)c1cc2cccc(Cl)c2c(=O)n1-c1ccccc1 [duvelisib] | -6.36 | 10 | 1.84 | 7 | -3.47 | -11 |  |  |  |  |  |  |
| CO[C@]1(C(=O)N[C@@H](C)c2ccc(-n3cc(F)cn3)nc2)CC[C@H](c2nc(C)cc(Nc3cc(C)[nH]n3)n2)CC1 [pralsetinib] | 62 | 58 | 95 | 2 | 7 | 43 |  |  |  |  |  |  |
| Cc1cc(Nc2ncnc3ccc(NC4=NC(C)(C)CO4)cc23)ccc1Oc1ccn2ncnc2c1 [tucatinib] | 2 | 0.25 | 18 | 8 | 0.299 | -5 |  |  |  |  |  |  |
| Cn1cnc2c(F)c(Nc3ccc(Br)cc3F)c(C(=O)NOCCO)cc21 [binimetinib] | 9 | 2 | 0.674 | -13 | 5 | -21 |  |  |  |  |  |  |
| Cc1nc(NC(=O)N2CCC[C@H]2C(N)=O)sc1-c1ccnc(C(C)(C)C(F)(F)F)c1 [alpelisib] | -6 | 8 | -0.644 | 8 | -5.64 | -14 |  |  |  |  |  |  |
| C=CC(=O)N1CCC([C@@H]2CCNc3c(C(N)=O)c(-c4ccc(Oc5ccccc5)cc4)nn32)CC1 [zanubrutinib] | -1.86 | -2 |  | -5 | -0.675 | -17 |  |  | 96 |  |  |  |
| C[C@H]1Oc2cc(cnc2N)-c2c(nn(C)c2C#N)CN(C)C(=O)c2ccc(F)cc21 [lorlatinib] | 45 | 68 | 3 | 13 | -0.181 | -9 |  |  |  |  |  |  |
| CCN1CCN(c2ccc(Nc3cc(N(C)C(=O)Nc4c(Cl)c(OC)cc(OC)c4Cl)ncn3)cc2)CC1 [infigratinib] | 0.318 | 2.8 | 7 | -1.83 | -1.45 | -17 |  |  |  |  |  |  |
| COC(=O)N[C@@H](C)CNc1nccc(-c2cn(C(C)C)nc2-c2cc(Cl)cc(NS(C)(=O)=O)c2F)n1 [encorafenib] | 9 | 3 | -1.53 | -3.42 | 7 | -17 |  |  |  |  |  |  |
| CCc1nc(C(N)=O)c(Nc2ccc(N3CCC(N4CCN(C)CC4)CC3)c(OC)c2)nc1NC1CCOCC1 [gilteritinib] | 66 | 87 | 44 | 89 | 8.52 | 25 |  |  |  |  |  |  |
| CN1CCN(c2ccc(C(=O)Nc3n[nH]c4ccc(Cc5cc(F)cc(F)c5)cc34)c(NC3CCOCC3)c2)CC1 [entrectinib] | 37 | 62 | 97 | 0.904 | -5.65 |  |  |  |  |  |  |  |
| COc1cc2ncnc(Nc3ccc(F)c(Cl)c3)c2cc1NC(=O)/C=C/CN1CCCCC1 [dacomitinib] | 14 | 45 | 20 | 76 | -6 | -29 |  |  |  |  |  |  |
| Cn1cc(-c2cc3c(N4CCN(c5ncc([C@@](C)(N)c6ccc(F)cc6)cn5)CC4)ncnn3c2)cn1 [avapritinib] | 60 | 65 | 16 | 29 | 0.775 | 11 |  |  |  |  |  |  |
| CCn1c(=O)c(-c2cc(NC(=O)Nc3ccccc3)c(F)cc2Br)cc2cnc(NC)cc21 [ripretinib] | 100 | 92 | 5.66 | 5 | -5 | -19 |  |  |  |  |  |  |
